The target in data set [1] is T1, HPK1 (Homo sapiens (Human), UniProt Q92918). In words: Inhibition of HPK1 kinase activity in vitro (ADP-Glo), compounds of Formula I-1. The note with it: MBP substrate. The format is biochemical. How it is done: The starting concentration for all tested compounds was 10 μM, and diluted in three-fold concentration gradient for a total of 10 concentration points in duplicate.
Before the experiment, 50 μM DTT and the enzymatic reaction system buffer were prepared.
The compound dilution was transferred into 384-well plate by using a pipette, afterwards, the 384-well plate was sealed and centrifuged at 1000 g for 1 min. 2-fold concentration of HPK1 solution was prepared in the kinase buffer, and then 2.5 μL of the prepared 2-fold concentration of HPK1 solution was added into the 384 wells, centrifuged at 1000 g for 30 s, and incubated for 10 min at room temperature. A mixture of 2-fold concentration of MBP and ATP was prepare in the kinase buffer, and […] of prepared mixture of 2-fold concentration of MBP and ATP was added into the above reaction system for the reaction, centrifuged at 1000 g for 30 s, and then incubated at room temperature for 1 h, 5 μL of ADP-Glo reagent was added into the reaction system, and incubated at room temperature for 40 min. 10 μL of kinase detection reagent was added and incubated at room temperature for 40 min.
In the above formula, cmpd refers to the tested compound, PC refers to the positive control, and VC refers to the negative control.
(In general: ADP-Glo turns the ADP formed in a reaction into a luminescent signal.)

In data set [2] the target is T2, GCK (Homo sapiens (Human), UniProt Q12851). The experiment in a line: In vitro enzyme activity, ADP-Glo method (Example 3). The format is biochemical. The note with it: recombinant protein, read-out: GCK inhibiting activity level (IC50). On the procedure: (§1) ADP-Glo™ Kinase Assay is a luminescent ADP assay that provides a versatile, homogeneous, high-throughput screening method to measure kinase activity by quantifying the amount of ADP produced during the kinase reaction. The assay was performed in two steps; first, after the kinase reaction, an equal volume of ADP-Glo™ Reagent was added to quench the kinase reaction and consume the remaining ATP. Second, the Kinase Assay Reagent was added to concurrently convert ADP to ATP and allow measurement of newly synthesized ATP using the luciferase/luciferin reaction. The light produced was measured using a photometer. Luminescence can be correlated with ADP concentration by using an ATP to ADP conversion curve. […] Meanwhile, better selectivity was shown on kinases with closer homology such as GCK/TNIK/PDK1.

In data set [3] the target is T1, HPK1. The description is as above. In kind it is biochemical. The note with it: recombinant protein, read-out: HPK1 inhibiting activity level (IC50). How it is done:
as §1

In data set [4] the target is T3, PDK1 (Homo sapiens (Human), UniProt O15530). The data set is described as above. The format is biochemical. The note with it: recombinant protein, read-out: PDK1 inhibiting activity level (IC50). How it is done: as §1
The target in data set [5] is T4, TNIK (Homo sapiens (Human), UniProt Q9UKE5). The data set is described as above. The format is biochemical. The note with it: recombinant protein, read-out: TNIK inhibiting activity level (IC50). How it is done: as §1
Target sequence in this assay (Q9UKE5 whole entry, species assumed): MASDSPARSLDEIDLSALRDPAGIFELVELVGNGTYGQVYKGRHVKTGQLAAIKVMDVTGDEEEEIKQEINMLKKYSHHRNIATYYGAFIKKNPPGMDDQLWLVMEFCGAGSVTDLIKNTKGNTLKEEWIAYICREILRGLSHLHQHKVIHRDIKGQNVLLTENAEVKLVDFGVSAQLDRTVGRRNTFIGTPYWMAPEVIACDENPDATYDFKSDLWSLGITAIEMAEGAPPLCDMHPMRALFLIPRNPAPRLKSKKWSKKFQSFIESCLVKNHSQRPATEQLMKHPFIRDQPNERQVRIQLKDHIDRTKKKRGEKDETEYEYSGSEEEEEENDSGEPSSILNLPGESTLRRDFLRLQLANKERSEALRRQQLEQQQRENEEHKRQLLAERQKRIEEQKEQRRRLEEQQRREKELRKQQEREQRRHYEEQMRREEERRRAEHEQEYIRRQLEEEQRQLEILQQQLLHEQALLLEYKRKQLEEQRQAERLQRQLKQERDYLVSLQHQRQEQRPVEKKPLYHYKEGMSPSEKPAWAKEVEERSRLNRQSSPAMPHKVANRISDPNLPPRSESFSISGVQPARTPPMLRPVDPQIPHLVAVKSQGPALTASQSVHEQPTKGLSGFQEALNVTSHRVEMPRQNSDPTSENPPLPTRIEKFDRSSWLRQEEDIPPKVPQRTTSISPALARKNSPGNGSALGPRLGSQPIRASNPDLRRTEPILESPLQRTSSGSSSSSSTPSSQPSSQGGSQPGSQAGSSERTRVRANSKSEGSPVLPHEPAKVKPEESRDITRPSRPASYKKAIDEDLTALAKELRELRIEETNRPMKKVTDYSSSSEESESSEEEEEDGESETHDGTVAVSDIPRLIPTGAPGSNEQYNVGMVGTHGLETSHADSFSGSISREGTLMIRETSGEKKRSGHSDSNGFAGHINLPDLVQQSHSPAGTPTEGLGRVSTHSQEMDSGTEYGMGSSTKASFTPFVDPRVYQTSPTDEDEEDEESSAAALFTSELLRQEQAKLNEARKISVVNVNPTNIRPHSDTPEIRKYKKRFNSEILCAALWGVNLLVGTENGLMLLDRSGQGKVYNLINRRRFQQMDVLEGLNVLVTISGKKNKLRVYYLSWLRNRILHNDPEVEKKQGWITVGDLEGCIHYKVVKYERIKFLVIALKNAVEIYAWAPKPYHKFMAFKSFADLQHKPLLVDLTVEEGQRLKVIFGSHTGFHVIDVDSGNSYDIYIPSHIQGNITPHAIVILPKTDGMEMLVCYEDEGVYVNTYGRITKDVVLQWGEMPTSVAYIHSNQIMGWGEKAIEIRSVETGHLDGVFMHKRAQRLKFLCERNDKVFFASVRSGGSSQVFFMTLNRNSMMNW
The nature of data set [6]: Oral maximum tolerated dose / oral acute toxicity test in mice. In kind it is in vivo. To be noted: for Death, Female mice / Death, Male mice: P.O.; for MTD: mouse, in vivo, po, mice, single dose. An excerpt: The inventors tested representative compounds for oral maximum tolerated dose in mice.
The target in data set [7] is T1, HPK1. The experiment in a line: Inhibition of HPK1 kinase activity in vitro (ADP-Glo), compounds of Formula I-2. The format is biochemical. To be noted: ADP-Glo; read-out: Activity/IC50, nM HPK1. How it is done: The starting concentration for all tested compounds was 10 μM, and diluted in three-fold concentration gradient for a total of 10 concentration points in duplicate. Before the experiment, 50 μM DTT and the enzymatic reaction system buffer were prepared. […] A mixture of 2-fold concentration of MBP and ATP was prepare in the kinase buffer, and 2.5 μL of prepared mixture of 2-fold concentration of MBP and ATP was added into the above reaction system for the reaction, centrifuged at 1000 g for 30 s, and then incubated at room temperature for 1 h. 5 μL of ADP-Glo reagent was added into the reaction system, and incubated at room temperature for 40 min. 10 μL of kinase detection reagent was added and incubated at room temperature for 40 min. […] In the above formula, empd refers to the tested compound, PC refers to the positive control, and VC refers to the negative control.

Data set [8] has as its target T2, GCK. In words: Inhibition of GCK kinase activity in vitro (ADP-Glo). To be noted: ADP-Glo; read-out: Activity/IC50, nM GCK. In kind it is biochemical. On the procedure:
(§2) The starting concentration for all tested compounds was 10 μM, and diluted in three-fold concentration gradient for a total of 10 concentration points in duplicate. […] A mixture of 2-fold concentration of MBP and ATP was prepare in the kinase buffer, and 2.5 μL of prepared mixture of 2-fold concentration of MBP and ATP was added into the above reaction system for the reaction, centrifuged at 1000 g for 30 s, and then incubated at room temperature for 1 h. 5 μL of ADP-Glo reagent was added into the reaction system, and incubated at room temperature for 40 min. 10 μL of kinase detection reagent was added and incubated at room temperature for 40 min.

For data set [9], the target named is T4, TNIK. In words: Inhibition of TNIK kinase activity in vitro (ADP-Glo). The note with it: ADP-Glo; read-out: Activity/IC50, nM TNIK. The format is biochemical. On the procedure: as §2
Target sequence in this assay (Q9UKE5 whole entry): as the sequence (Q9UKE5 whole entry, species assumed) above
Data set [10] concerns the target T3, PDK1. The experiment in a line: Inhibition of PDK1 kinase activity in vitro (ADP-Glo). The format is biochemical. The note with it: ADP-Glo; read-out: Activity/IC50, nM PDK1. How it is done:
as §2

For data set [11], the system named is Feline Infectious Peritonitis. In words: Animal clinical trial in cats with Feline Infectious Peritonitis. In kind it is in vivo. The note with it: 20 days; for ALB/GLB, After treatment / Feline serum amyloid A (fSAA, mg/L), After treatment: 1.5 mg/kg twice a day; for body weight (kg), After treatment: injection 1.5 mg/kg twice a day. The text has this:
Therefore, the inventors hypothesized that HPK1 inhibitors might have therapeutic effects on Feline Infectious Peritonitis. To validate this hypothesis, the inventors conducted an animal clinical trial. Three animals were included in the experiment, all of them suffered from Feline Infectious Peritonitis, aged between 5-12 months, one was female and the other two were male (Table 4).

Consider 17 compounds from patent US20250161319A1, “USE OF HPK1 INHIBITOR IN TREATMENT OF INTERFERON-RELATED DISEASES” (priority 2022, published 2025).

T1 sequence (Q92918 whole entry): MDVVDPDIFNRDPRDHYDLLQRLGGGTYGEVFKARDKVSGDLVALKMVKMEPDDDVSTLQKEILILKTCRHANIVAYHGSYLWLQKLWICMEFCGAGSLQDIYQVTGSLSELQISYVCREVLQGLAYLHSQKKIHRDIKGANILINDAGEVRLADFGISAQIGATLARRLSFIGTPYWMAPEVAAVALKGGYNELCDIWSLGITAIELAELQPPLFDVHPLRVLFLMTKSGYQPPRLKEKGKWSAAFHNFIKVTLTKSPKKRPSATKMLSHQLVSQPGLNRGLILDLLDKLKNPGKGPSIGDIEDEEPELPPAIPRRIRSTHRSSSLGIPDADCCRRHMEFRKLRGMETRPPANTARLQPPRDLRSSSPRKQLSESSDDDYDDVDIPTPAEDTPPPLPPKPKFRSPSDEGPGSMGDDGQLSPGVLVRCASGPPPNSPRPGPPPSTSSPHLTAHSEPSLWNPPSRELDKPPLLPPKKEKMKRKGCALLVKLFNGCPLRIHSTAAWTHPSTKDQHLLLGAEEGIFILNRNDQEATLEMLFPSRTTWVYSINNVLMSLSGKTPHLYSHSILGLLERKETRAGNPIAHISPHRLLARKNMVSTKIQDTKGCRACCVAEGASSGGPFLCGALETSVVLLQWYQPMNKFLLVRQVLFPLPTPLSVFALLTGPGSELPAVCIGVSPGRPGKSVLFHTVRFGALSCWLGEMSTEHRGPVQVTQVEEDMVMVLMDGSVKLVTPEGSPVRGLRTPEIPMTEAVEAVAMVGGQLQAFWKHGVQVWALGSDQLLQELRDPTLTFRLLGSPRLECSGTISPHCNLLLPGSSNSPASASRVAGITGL
T3 sequence (O15530 whole entry): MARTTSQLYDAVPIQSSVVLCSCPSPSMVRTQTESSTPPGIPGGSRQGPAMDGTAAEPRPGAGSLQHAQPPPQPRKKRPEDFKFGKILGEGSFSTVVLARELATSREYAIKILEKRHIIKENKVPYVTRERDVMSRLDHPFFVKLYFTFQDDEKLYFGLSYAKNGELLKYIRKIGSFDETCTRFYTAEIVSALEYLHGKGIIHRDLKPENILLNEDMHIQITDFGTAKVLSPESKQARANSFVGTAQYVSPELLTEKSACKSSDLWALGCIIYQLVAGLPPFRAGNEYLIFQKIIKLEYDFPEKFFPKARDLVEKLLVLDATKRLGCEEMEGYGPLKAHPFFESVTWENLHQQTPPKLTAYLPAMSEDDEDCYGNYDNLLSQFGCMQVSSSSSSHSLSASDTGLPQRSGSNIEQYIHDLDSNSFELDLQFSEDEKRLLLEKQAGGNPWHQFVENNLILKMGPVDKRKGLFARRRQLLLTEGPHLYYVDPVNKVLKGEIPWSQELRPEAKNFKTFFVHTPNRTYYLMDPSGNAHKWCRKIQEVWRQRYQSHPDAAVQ
T2 sequence (Q12851 whole entry): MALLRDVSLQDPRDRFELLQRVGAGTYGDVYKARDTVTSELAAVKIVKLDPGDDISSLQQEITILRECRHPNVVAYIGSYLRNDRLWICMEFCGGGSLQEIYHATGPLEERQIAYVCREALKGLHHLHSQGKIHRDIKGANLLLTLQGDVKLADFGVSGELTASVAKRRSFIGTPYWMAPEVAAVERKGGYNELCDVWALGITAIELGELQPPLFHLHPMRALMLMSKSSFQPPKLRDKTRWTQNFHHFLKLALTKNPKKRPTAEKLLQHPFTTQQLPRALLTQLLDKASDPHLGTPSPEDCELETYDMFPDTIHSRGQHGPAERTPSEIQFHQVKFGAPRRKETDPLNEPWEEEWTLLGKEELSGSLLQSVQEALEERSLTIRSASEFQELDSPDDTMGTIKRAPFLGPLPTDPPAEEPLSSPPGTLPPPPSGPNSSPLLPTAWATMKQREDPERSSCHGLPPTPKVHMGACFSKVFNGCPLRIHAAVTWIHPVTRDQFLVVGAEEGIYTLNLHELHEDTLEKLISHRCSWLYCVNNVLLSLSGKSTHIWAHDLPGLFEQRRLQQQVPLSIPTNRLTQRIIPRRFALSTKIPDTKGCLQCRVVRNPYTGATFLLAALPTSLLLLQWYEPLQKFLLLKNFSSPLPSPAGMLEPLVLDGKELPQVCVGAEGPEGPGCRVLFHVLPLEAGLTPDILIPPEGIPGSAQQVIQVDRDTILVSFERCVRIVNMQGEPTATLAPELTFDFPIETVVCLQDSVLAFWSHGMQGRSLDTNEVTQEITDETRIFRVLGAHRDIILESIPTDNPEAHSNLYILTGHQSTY

In the case of “4-((2-((4-((2-(dimethylamino)ethyl)(methyl)amino)phenyl)amino)quinazolin-8-yl)oxo)cyclohexan-1-ol [Example 2]”, in data set [1], the IC50 was under 0.05 µM.

For `CN1CCN(c2ccc(Nc3ncc4cccc(O[C@H]5CC[C@H](O)CC5)c4n3)cc2)CC1` [Compound C3], the IC50 in [2] was 0.01 to 0.1 µM; in data set [3], 0.01 to 0.1 µM; in [4], over 1 µM; in [5], 0.01 to 0.1 µM. Moreover, the “Death, Female mice” value is reported as 0/5 in data set [6] (225 mg/kg); 2/5 in [6] (337.5 mg/kg); 2/5 in data set [6] (506.3 mg/kg); 5/5 in [6] (759.4 mg/kg); 5/5 in [6] (1139.1 mg/kg). The “Death, Male mice” value was 0/5 in [6] (225 mg/kg); 1/5 in data set [6] (337.5 mg/kg); 3/5 in data set [6] (506.3 mg/kg); 3/5 in data set [6] (759.4 mg/kg); 5/5 in data set [6] (1139.1 mg/kg). The MTD in [6] was determined as 225 mg/kg.

For the compound `Cn1cccc1-c1cc2cc(NC(=O)C3C[C@H]3F)ncc2c(N)c1F` (some centres unmarked) [Compound C5], the IC50 in data set [2] is at most 0.01 µM; in data set [3] it was at most 0.01 µM; in data set [4], over 1 µM; in [5] it was 0.01 to 0.1 µM.

Compound `CN1CCN(c2ccc(Nc3ncc4cccc(OC5CCC(O)CC5)c4n3)cc2)CC1` (centres unmarked) [Example 4] came in with an IC50 in data set [1] of under 0.05 µM.

As to `Cn1cccc1-c1cc2cc(NC(=O)[C@@H]3C[C@@H]3F)ncc2c(N)c1F` [DD02001A cis, (1S,2S)—N-(8-amino-7-fluoro-6-(1-methyl-1H-pyrrole-2-yl)isoquinolin-3-yl)-2-fluorocyclopropane-1-carboxamide], the IC50 in data set [7] is under 10 nM; in data set [8], over 10 nM; in data set [9] it was over 10 nM; in data set [10], over 7000 nM.

Compound `CN1CCC(n2cc(Nc3ncc4cccc(OC5CCC(O)CC5)c4n3)cn2)CC1` (centres unmarked) [Example 3, 4-((2-((1-(1-methylpiperidin-4-yl)-1H-pyrazol-4-yl)amino)quinazolin-8-yl)oxo)cyclohexan-1-ol] showed an IC50 in [1] of under 0.05 µM.

Regarding `CN1CCC(NC(=O)c2ccc(Nc3ncc4cccc(OC5CCC(O)CC5)c4n3)cc2)CC1` (centres unmarked) [Example 8, 4-((8-((4-hydroxycyclohexyl)oxo)quinazolin-2-yl)amino)-N-(1-methylpiperidin-4-yl)benzamide], the IC50 in [1] was under 0.05 µM.

`CN1CCN(c2ccc(Nc3ncc4cccc(OC5CCC(O)CC5)c4n3)nc2)CC1` (centres unmarked) [Example 7, 4-((2-((5-(4-methylpiperazin-1-yl)pyridin-2-yl)amino)quinazolin-8-yl)oxo)cyclohexan-1-ol] registered an IC50 in data set [1] of under 0.3 µM.

As for `NS(=O)(=O)c1ccc(Nc2ncc3cccc(OC4CCC(O)C4)c3n2)cc1` (centres unmarked) [Example 9, 4-((8-((3-hydroxycyclopentyl)oxo)quinazolin-2-yl)amino)benzenesulfonamide], the IC50 in [1] is under 0.3 µM.

On to `CN1CCC(n2cc(Nc3ncc4cccc(O[C@H]5CC[C@@H](N)CC5)c4n3)cn2)CC1` [Example 1, 8-(((1s,4s)-4-aminocyclohexyl)oxo)-N-(1-(1-methylpiperidin-4-yl)-1H-pyrazol-4-yl)quinazolin-2-amine], for which the IC50 in data set [1] was under 0.05 µM.

Consider `Cn1cccc1-c1cc2cc(NC(=O)C3C[C@@H]3F)ncc2c(N)c1F` (some centres unmarked) [Compound C6], for which the IC50 in data set [2] was 0.01 to 0.1 µM; in [3] it was at most 0.01 µM; in [4] it was over 1 µM; in data set [5] it was 0.01 to 0.1 µM.

`CN1CCC(n2cc(Nc3ncc4cccc(O[C@H]5CC[C@@H](N)CC5)c4n3)cn2)CC1` [Compound C2]: the IC50 in [2] was 0.01 to 0.1 µM; in [3] it was at most 0.01 µM; in data set [4], 0.1 to 1 µM; in data set [5], 0.1 to 1 µM.

In data set [1], `CN1CCN(c2ccc(Nc3ncc4cccc(OC5CCC(O)C5)c4n3)cc2)CC1` (centres unmarked) [Example 6] returned an IC50 of under 0.1 µM.

`CN1CCC(n2cc(Nc3ncc4cccc(O[C@H]5CC[C@H](N)CC5)c4n3)cn2)CC1` [Compound C1]: the IC50 was 0.01 to 0.1 µM in [2], at most 0.01 µM in data set [3], 0.1 to 1 µM in data set [4] and 0.1 to 1 µM in data set [5]. The “Death, Female mice” value in data set [6] (225 mg/kg) is given as 0/5; in data set [6] (337.5 mg/kg) it was 0/5; in data set [6] (506.3 mg/kg), 1/5; in data set [6] (759.4 mg/kg), 4/5; in [6] (1139.1 mg/kg) it was 5/5. The “Death, Male mice” value in data set [6] (225 mg/kg) is on record as 0/5; in data set [6] (337.5 mg/kg), 0/5; in [6] (506.3 mg/kg), 2/5; in [6] (759.4 mg/kg), 4/5; in [6] (1139.1 mg/kg), 5/5. The compound further displayed an MTD in data set [6] of 338 mg/kg. The “ALB/GLB, After treatment” value in data set [11] (Animal No. 1, before treatment 0.5) came to 0.7; in data set [11] (Animal No. 2, before treatment 0.35), 0.47; in data set [11] (Animal No. 3, before treatment 0.4), 0.5. For the same compound, the “body weight (kg), After treatment” value came to 2.15 kg in data set [11] (Animal No. 1, before treatment 1.5); 2.81 kg in data set [11] (Animal No. 2, before treatment 2.31); 3.2 kg in data set [11] (Animal No. 3, before treatment 2.9). Also, the “Feline serum amyloid A (fSAA, mg/L), After treatment” value in data set [11] (Animal No. 2, before treatment 70.47) is listed as 15.14 mg/L; in data set [11] (Animal No. 3, before treatment 104.88), 17.97 mg/L.

As for `COCCOc1cccc2cnc(Nc3ccc(N4CCN(C)CC4)cc3)nc12` [Example 5, 8-(2-methoxyethoxy)-N-(4-(4-methylpiperazin-1-yl)phenyl)quinazolin-2-amine], the IC50 in data set [1] was under 0.2 µM.

With `CN1CCN(c2ccc(Nc3ncc4cccc(O[C@H]5CC[C@@H](O)CC5)c4n3)cc2)CC1` [Compound C4], the IC50 is 0.01 to 0.1 µM in data set [2], 0.01 to 0.1 µM in data set [3], over 1 µM in data set [4] and 0.01 to 0.1 µM in [5].

With `NS(=O)(=O)c1cccc(Nc2ncc3cccc(OC4CCC(O)CC4)c3n2)c1` (centres unmarked) [Example 10, 3-((8-((4-hydroxycyclohexyl)oxo)quinazolin-2-yl)amino)benzenesulfonamide], the IC50 in data set [1] is over 0.3 µM.

By MTD is commonly meant the largest dose that counted as tolerated. The low end stands for poorer tolerability, the high end for better tolerability.
